Assay results published in article PMC7961786, “Magic Peptide: Unique Properties of the LRR11 Peptide in the Activation of Leukotriene Synthesis in Human Neutrophils” (International Journal of Molecular Sciences, 2021).
“Also recorded” adds a separate entry of the source.

Tests used:
NeutrAvidin = test: TSM acoustic biosensor, immobilization of 5′-biotinylated C-CpG on NeutrAvidin surface; format: binding; settings: Sauerbrey's equation, 1 μM 5′-biotinylated ODN on NeutrAvidin
Source text: Using Sauerbrey’s Equation (2), (2) Δf=−2f02Δm/Aμqρq where f0 is the fundamental resonance frequency (in our case 8 MHz), Δm is the change in mass (in grams) of the adsorbed layer on the crystal surface, A is the effective crystal area (in our case 0.2 cm^2), μq = 2.947 × 10^11 g × cm^−1s^−2 is the shear modulus of elasticity, and ρq = 2.648 g × cm^−3 is the crystal density, surface concentrations of NeutrAvidin, ODN and LRR11 peptide were estimated based on changes of resonance frequency (Figure 4). According to Equation (2), the surface density of molecules, σ (in molecules/cm^2), can be calculated as σ = ΔmNA/(A × Mw), where NA is Avogadro’s number (=6.023 × 10^23 mol^−1), and Mw represents the molecular weight of the corresponding compound (NeutrAvidin: 65 kDa, 5′-biotinylated C-CpG: 7115.4 Da, and LRR11: 3421 Da). Based on this approach, we obtained the following surface concentration values: 1.94 × 10^13 cm^−2 for NeutrAvidin, 3.37 × 10^13 cm^−2 for C-CpG and 2.4 × 10^13 cm^−2 for LRR11. The NeutrAvidin has four binding sites, two of which are available for biotinylated ODN binding. This is due to the fact that the other two sites are inaccessible due to NeutrAvidin chemisorption on the TSM surface. Thus, the number of available binding sites for the ODN is 3.88 × 10^13 cm^−2. […] Therefore, the surface of the TSM transducer is practically completely saturated by C-CpG. […]

5′-biotinylated B-CpG = test: TSM acoustic biosensor, peptide binding to immobilized B-CpG
Source text: To characterize the interaction of the studied synthetic ODNs with the LRR11 peptide, we applied the thickness shear mode (TSM) acoustic biosensor method, which is based on the investigation of ultrasonic waves in piezoelectric materials such as AT-cut quartz. This approach involved immobilizing a 5′-biotinylated ODN on the surface of TSM transducer covered by NeutrAvidin and then adding the LRR11 peptide. An unrelated peptide (URP) with a random primary structure ([…]) was used as a negative control. The measurement procedure was divided into several steps, in which each immobilization stage was followed by washing with an appropriate buffer solution; when peptide solutions at different concentrations (from 1 to 100 nM) were added to the surface-modified TSM transducer, a wash with Hanks buffer was used before increasing the peptide concentration.
Based on Langmuir isotherm Equation (1), (1) Δfcc=Δfsmaxc/KD+c where Δfs(c) is the frequency change at a certain peptide concentration under equilibrium conditions, (Δfs)max is the maximum frequency change, c is the peptide concentration, and KD is the equilibrium constant of dissociation, we estimated the (Δfs)max and KD values for binding of the LRR11 peptide to C-CpG and B-CpG (Table 3).
Eight MHz AT-cut piezoelectric quartz crystal transducer was obtained from CH Instruments, Austin, TX, USA. The transducer was covered on both sides with thin layers of gold that served as electrodes (working area 0.2 cm^2). Prior ODNs immobilization, the crystal was carefully cleaned with basic Piranha solution (29% NH3, 30% H2O and H2O2 with volumetric 1:5:1 ratio, respectively) for 25 min. After the thorough cleaning, the crystal was positioned between two silicon O-rings in a flow-through cell. The analyte was injected into the cell using a Genie Plus syringe pump (Kent Scientific, Torrington, CT, USA) at a flow rate of 50 μL/min. Each solution was applied until the resonance frequency stabilized. The surface of the transducer was first washed with deionized water, and then 125 μg/mL NeutrAvidin (WWR International GmbH, Vienna, Austria) solution in water was applied. Approximately 15 min were required to stabilize the signal at a constant NeutrAvidin flow rate. This was followed by washing with water to rinse out all non-chemisorbed NeutrAvidin molecules. Immobilization of ODN on the gold surface of the crystals is accomplished using avidin–biotin interactions. A 1 μM 5′-biotinylated ODN solution was injected over the neutravidin-modified surface and subsequently the crystal was washed again with water. The system was then equilibrated using Hanks buffer solution. This buffer was suitable for studying LRR11–ODN binding. Then LRR11 was used at concentrations of 1, 5, 10, 50 and 100 nM […] in Hanks buffer. After each addition of LRR11, the sensor surface was washed with Hanks buffer and LRR11 with the higher concentration was added. All binding experiments were carried out at room temperature. Buffer and sample solutions were introduced in a flow-through format. A network analyzer 8712ES (Agilent Technologies, Santa Clara, CA, USA) was used to measure the impedance properties of the sensor and determine fS and Rm.

human neutrophils = test: Reactive oxygen species formation (H2DCF-DA); format: cell-based; settings: n = 3, Figure 8
Method: Figure 8 When added simultaneously, LRR11 potentiates the prooxidant effects of oligonucleotides. H2DCF-DA-stained PMNLs (1 × 10^6/mL) were cultured for 1 h at 37 °C in 5% CO2 without additives or in the presence of 1 µM ODN, supplemented (shaded) or not (solid fill) with 1 µM LRR11. DCF green fluorescence signals (ex. 485 nm, em. 538 nm) were monitored every 5 min for an hour. Values represent the means ± SEM of DCF fluorescence intensity increments (RFU) in 30 min after stimulus addition (n = 3). * p < 0.05 for the pairs of data specified, as indicated by two-way ANOVA followed by Tukey’s multiple comparison test.
The level of intracellular production of reactive oxygen species was monitored by measuring the green fluorescence of H2DCF-DA-labeled oxidized product incorporated into cells according to the manufacturer’s protocol. Briefly, human neutrophils were incubated with 5 μM carboxy-H2DCF-DA (Molecular Probe, Eugene, OR, USA) for 60 min at room temperature, followed by rinsing with PBS. […] Fluorescent cell staining (excitation at 485 nm and emission at 538 nm) was recorded at CLARIOstar fluorescence microplate reader, using MARS Data Analysis Software, version 3.30 (both hardware and software are from BMG Labtech, Ortenberg, Germany).

| Substance | surface concentration of C-CpG (NeutrAvidin) | change of ∆fs at low LRR11 concentrations (5′-biotinylated B-CpG; 1, 5, 10 nM LRR11, B-CpG) | Kd (5′-biotinylated B-CpG; LRR11-B-CpG complex, Langmuir fit, Hanks buffer, room temperature, LRR11 1-100 nM, three independent experiments) | effect of LRR11 on prooxidant potential of ODNs (human neutrophils; 1 µM LRR11 + 1 µM ODN, 30 min) | effect of LRR11 alone on synthesis of reactive oxygen species (human neutrophils; 1 µM LRR11, 37 °C) |
| --- | --- | --- | --- | --- | --- |
| 5′-tcgtcgttttcggcgcgcgccg-3′ (DNA TCGTCGTTTTCGGCGCGCGCCG; chemistry not fully specified) [C-CpG] | 3.37 × 10^13 cm^−2 | – | – | – | – |
| QLRKLNLSFNYQKRVSFAHLSLAPSFGSLV [LRR11, 30 amino acid peptide from leucine-rich repeat of TLR9] | – | not significant or small changes of ∆fs | 0.0551 ± 0.0174 µM | Notably enhancing the prooxidant potential of the studied ODNs, in particular, CpG-containing ones; also recorded: only CpG-ODNs in combination with LRR11 enhanced responses | does not affect the synthesis of reactive oxygen species |
